Source: US10952992B2, “Methods of treating intraocular pressure with activators of Tie-2” (Aerpio Pharmaceuticals, Inc., priority 2015, dated 2021)
Values joined by “and” are separate entries in the source; they are usually repeats but may differ in a detail not shown here. Equal values may be shown once. Where a name gives a salt, the structure may show the parent alone.

Key:
[1] = Example 2 plasma concentrations and pharmacokinetics after topical ocular, subcutaneous, intravitreal administration; format: in vivo, male New Zealand White rabbits
Description: (§1) To measure the concentration of Compound 1 in plasma and ocular tissues following topical ocular, subcutaneous, and intravitreal administration, New Zealand White rabbits were administered Compound 1, and plasma and ocular samples were collected at pre-determined time points. Compound 1 formulations were prepared fresh on each day of dosing.
(§2) Ocular tissue samples from both eyes of each animal were collected and weights were recorded. Plasma and ocular tissue sample concentrations of Compound 1 were determined by LC-MS/MS.
New Zealand White rabbits weighing 2.5 to 3.5 kg were used on this study. Rabbits were housed one per cage. Animals were not fasted and only healthy animals with no ocular illness were used. Two rabbits per group were sacrificed at each of four ocular tissue sampling time points for a total of eight rabbits per group.
(§3) Animals were anesthetized for ocular (topical) and intravitreal dosing following the 12IA7 IACUC protocol. Each rabbit received a bolus dose of test formulation either via topical ocular administration 3 times daily on Days 1 and 2 (at 0, 6, and 12 hours), and once on Day 3 (at 0 hours) into both eyes; via intravitreal administration into both eyes once on Day 1 (at 0 hours); or via subcutaneous administration 2 times daily on Days 1 and 2 (at 0 and 8 hours) and once daily on Day 3 (at 0 hours). Doses were given within an approximately 1 hour window each day where applicable.
Each blood sample was collected on Day 3 post dose at pre-determined time points from the rabbits via an ear vessel and placed into chilled polypropylene tubes containing sodium heparin as an anticoagulant. Samples were spun by centrifuge at 4° C. and 3,000× g for 5 minutes. Samples were maintained chilled throughout processing. Each plasma sample was placed on dry ice and stored in a freezer at −60° C. to −80° C. pending bioanalysis.
(§4) An LC-MS/MS method was developed for the determination of Compound 1 in rabbit aqueous tissues (plasma, aqueous and vitreous humor) and solid ocular tissue samples. A pre-study standard curve was analyzed to determine the specificity, range, and lower limit of quantitation of the method. Plasma and tissue homogenate study samples were extracted and analyzed. All the samples were treated identically to the standards.
(§5) One eight-point standard curve was used in each analytical batch. To be accepted, each batch must have had at least five of eight standards with accuracy within ±20% of nominal, except at the lower limit of quantification (LLOQ), where ±25% was acceptable.
Pharmacokinetic parameters were calculated from the time course of the plasma concentration. The maximum plasma concentration (Cmax) and time to the maximum plasma drug concentration (Tmax) were the observed values for each concentration-time profiles. The area under the plasma drug concentration-time curve (AUClast, with last being from time 0 to the last quantifiable point) was calculated using the trapezoidal formula. The mean residence time MRTlast was calculated as a ratio of AUMClast (area under the first movement curve) to AUClast.

[2] = Example 2 aqueous humor concentrations; format: in vivo, male New Zealand White rabbits; conditions: for Average Peak Concentration, Aqueous Humor: solution
Description: as §1, §2, §3
On Day 1, for intravitreal administration, or on Day 3, for topical ocular and subcutaneous administration, at the appropriate ocular tissue collection time points, animals were euthanized and both eyes were enucleated immediately. Following enucleation, each eye was rinsed with phosphate-buffered saline. Ocular tissue samples from both eyes of each animal were collected at predetermined time points and weights were recorded. All the samples were frozen immediately on dry ice, and stored at −60° C. to −80° C. pending bioanalysis.
as §4, §5

[3] = Group 1: topical ocular 1.2 mg/eye (~0.7 mg/kg/dose), 15% HPβCD + 1% dextrose solution
[4] = Group 1: topical ocular 1.2 mg/eye (~0.7 mg/kg/dose), 15% HPβCD + 1% dextrose, 0.50 hr
[5] = Group 1: topical ocular 1.2 mg/eye (~0.7 mg/kg/dose), 15% HPβCD + 1% dextrose, 1.0 hr
[6] = Group 1: topical ocular 1.2 mg/eye (~0.7 mg/kg/dose), 15% HPβCD + 1% dextrose, 2.0 hr
[7] = Group 1: topical ocular 1.2 mg/eye (~0.7 mg/kg/dose), 15% HPβCD + 1% dextrose, 4.0 hr
[8] = Group 2: subcutaneous 5 mg/kg/dose, 15% HPβCD + 1% dextrose solution
[9] = Group 2: subcutaneous 5 mg/kg/dose, 15% HPβCD + 1% dextrose solution, 0.25 hr
[10] = Group 2: subcutaneous 5 mg/kg/dose, 15% HPβCD + 1% dextrose solution, 0.50 hr
[11] = Group 2: subcutaneous 5 mg/kg/dose, 15% HPβCD + 1% dextrose solution, 1.0 hr
[12] = Group 2: subcutaneous 5 mg/kg/dose, 15% HPβCD + 1% dextrose solution, 2.0 hr
[13] = Group 2: subcutaneous 5 mg/kg/dose, 15% HPβCD + 1% dextrose solution, 4.0 hr
[14] = Group 2: subcutaneous solution, normalized by nominal dose 5 mg/kg
[15] = Group 4: intravitreal 2.5 mg/eye (~1.55 mg/kg), 10% HPβCD + 2% dextrose solution
[16] = Group 4: intravitreal 2.5 mg/eye (~1.55 mg/kg), 10% HPβCD + 2% dextrose solution, 1.0 hr
[17] = Group 4: intravitreal 2.5 mg/eye (~1.55 mg/kg), 10% HPβCD + 2% dextrose solution, 3.0 hr
[18] = Group 4: intravitreal 2.5 mg/eye (~1.55 mg/kg), 10% HPβCD + 2% dextrose solution, 6.0 hr
[19] = Group 4: intravitreal 2.5 mg/eye (~1.55 mg/kg), 10% HPβCD + 2% dextrose solution, 24.0 hr
[20] = Group 4: intravitreal 2.5 mg/eye (~1.55 mg/kg), 10% HPβCD + 2% dextrose solution, 48.0 hr
[21] = Group 4: intravitreal 2.5 mg/eye (~1.55 mg/kg), 10% HPβCD + 2% dextrose solution, 72.0 hr
[22] = Group 4: intravitreal solution, normalized by nominal dose 1.55 mg/kg
[23] = Group 1 (topical ocular 1.2 mg/eye), 0.5 hr
[24] = Group 1 (topical ocular 1.2 mg/eye), 1.0 hr
[25] = Group 1 (topical ocular 1.2 mg/eye), 2.0 hr
[26] = Group 1 (topical ocular 1.2 mg/eye), 4.0 hr
[27] = Group 2 (subcutaneous 5 mg/kg/dose, solution), 0.5 hr
[28] = Group 2 (subcutaneous 5 mg/kg/dose, solution), 1.0 hr
[29] = Group 2 (subcutaneous 5 mg/kg/dose, solution), 2.0 hr
[30] = Group 2 (subcutaneous 5 mg/kg/dose, solution), 4.0 hr, BLOQ = below 0.2 ng/mL
[31] = Group 4 (intravitreal 2.5 mg/eye, solution), 6.0 hr
[32] = Group 4 (intravitreal 2.5 mg/eye, solution), 24 hr
[33] = Group 4 (intravitreal 2.5 mg/eye, solution), 48 hr

plasma Cmax (± SE) [1, 3]: 7.48 ± 5.53 ng/mL and 7.48 ng/mL
plasma MRTlast [1, 3]: 2.98 h
plasma tmax [1, 3]: 4.00 h
plasma tmax ([1]; Group 1: topical ocular 1.2 mg/eye (~0.7 mg/kg/dose), 15% HPβCD + 1% dextrose solution, listed as Compound 1 (sodium salt)): 4 h
plasma Average conc. [1, 4]: 3.03 ng/mL
plasma Conc., individual rabbit [1, 4]: 3.84 ng/mL and 2.21 ng/mL
plasma Average conc. [1, 5]: 1.46 ng/mL
plasma Conc., individual rabbit [1, 5]: 1.28 ng/mL and 1.63 ng/mL
plasma Average conc. [1, 6]: 1.14 ng/mL
plasma Conc., individual rabbit [1, 6]: 2.04 ng/mL and 0.241 ng/mL
plasma Average conc. [1, 7]: 7.48 ng/mL
plasma Conc., individual rabbit [1, 7]: 13.0 ng/mL and 1.95 ng/mL
plasma AUC∞ [1, 8]: 1560 ng·h/mL
plasma Cmax (± SE) [1, 8]: 1525 ± 115 ng/mL and 1525 ng/mL
plasma MRTlast [1, 8]: 0.87 h
plasma t1/2 [1, 8]: 0.47 h
plasma tmax [1, 8]: 0.25 h
plasma Average conc. [1, 9]: 1525 ng/mL
plasma Conc., individual rabbit [1, 9]: 1640 ng/mL and 1410 ng/mL
plasma Average conc. [1, 10]: 1097 ng/mL
plasma Conc., individual rabbit [1, 10]: 883 ng/mL and 1310 ng/mL
plasma Average conc. [1, 11]: 646 ng/mL
plasma Conc., individual rabbit [1, 11]: 664 ng/mL and 628 ng/mL
plasma Average conc. [1, 12]: 180 ng/mL
plasma Conc., individual rabbit [1, 12]: 55.5 ng/mL and 305 ng/mL
plasma Average conc. [1, 13]: 7.76 ng/mL
plasma Conc., individual rabbit [1, 13]: 7.98 ng/mL and 7.53 ng/mL
plasma AUC∞, dose normalized [1, 14]: 312 kg·ng·h/mL/mg
plasma AUClast (± SE) [1, 15]: 953 ± 91.1 ng·h/mL and 953 ng·h/mL
plasma AUC∞ [1, 15]: 956 ng·h/mL
plasma Cmax (± SE) [1, 15]: 39.8 ± 2.30 ng/mL and 39.8 ng/mL
plasma MRTlast [1, 15]: 15.1 h
plasma t1/2 [1, 15]: 8.08 h
plasma tmax [1, 15]: 3.00 h
plasma Average conc. [1, 16]: 32.3 ng/mL
plasma Conc., individual rabbit [1, 16]: 33.2 ng/mL and 31.3 ng/mL
plasma Average conc. [1, 17]: 39.8 ng/mL
plasma Conc., individual rabbit [1, 17]: 37.5 ng/mL and 42.1 ng/mL
plasma Average conc. [1, 18]: 36.8 ng/mL
plasma Conc., individual rabbit [1, 18]: 44.3 ng/mL and 29.3 ng/mL
plasma Average conc. [1, 19]: 16.9 ng/mL
plasma Conc., individual rabbit [1, 19]: 19.0 ng/mL and 14.7 ng/mL
plasma Average conc. [1, 20]: 2.58 ng/mL
plasma Conc., individual rabbit [1, 20]: 2.70 ng/mL and 2.45 ng/mL
plasma Average conc. [1, 21]: 0.27 ng/mL
plasma Conc., individual rabbit [1, 21]: 0.215 ng/mL and 0.333 ng/mL
plasma tmax ([1]; Group 4: intravitreal 2.5 mg/eye (~1.55 mg/kg), 10% HPβCD + 2% dextrose solution, listed as Compound 1 (sodium salt)): 3 h
plasma AUC∞, dose normalized [1, 22]: 617 kg·ng·h/mL/mg
mean plasma AUClast between the two dose formulations ([1]; intravitreal administration): comparable
mean plasma Cmax, sodium salt solution compared to free acid suspension ([1]; intravitreal administration): approximately 2 fold
mean plasma AUClast, sodium salt solution compared to free acid suspension ([1]; subcutaneous administration): approximately 2 fold
mean plasma Cmax, sodium salt solution compared to free acid suspension ([1]; subcutaneous administration): approximately 3 fold
mean plasma Tmax ([1]; subcutaneous administration, postdose): 15 min
aqueous humor Average Conc. [2, 23]: 45.8 ng/g
aqueous humor Conc. OS [2, 23]: 1.78 ng/mL
aqueous humor Average Conc. [2, 24]: 15.0 ng/g
aqueous humor Conc. OD [2, 24]: 4.03 ng/mL and 3.05 ng/mL
aqueous humor Conc. OS [2, 24]: 3.55 ng/mL
aqueous humor Average Conc. [2, 25]: 31.6 ng/g
aqueous humor Conc. OD [2, 25]: 2.46 ng/mL
aqueous humor Conc. OS [2, 25]: 14.5 ng/mL and 15.8 ng/mL
aqueous humor Average Conc. [2, 26]: 8.24 ng/g
aqueous humor Conc. OD [2, 26]: 5.48 ng/mL and 7.78 ng/mL
Average Peak Concentration, Aqueous Humor ([2]; Group 1: topical ocular 0.70 mg/kg/dose): 45.8 ng/g
aqueous humor Average Conc. [2, 27]: 26.1 ng/g
aqueous humor Conc. OD [2, 27]: 23.5 ng/mL and 18.0 ng/mL
aqueous humor Conc. OS [2, 27]: 24.6 ng/mL and 38.2 ng/mL
aqueous humor Average Conc. [2, 28]: 3.30 ng/g
aqueous humor Conc. OD [2, 28]: 4.51 ng/mL and 3.22 ng/mL
aqueous humor Conc. OS [2, 28]: 1.84 ng/mL and 3.63 ng/mL
aqueous humor Average Conc. [2, 29]: 0.72 ng/g
aqueous humor Conc. OD [2, 29]: 0.581 ng/mL and 0.453 ng/mL
aqueous humor Conc. OS [2, 29]: 0.498 ng/mL
aqueous humor Conc. OD [2, 30]: BLOQ
aqueous humor Conc. OS [2, 30]: BLOQ
Average Peak Concentration, Aqueous Humor ([2]; Group 2: subcutaneous 5 mg/kg/dose): 26.1 ng/g
aqueous humor Average Conc. [2, 31]: 80575 ng/g
aqueous humor Conc. OD [2, 31]: 90600 ng/mL and 75300 ng/mL
aqueous humor Conc. OS [2, 31]: 77100 ng/mL and 79300 ng/mL
aqueous humor Average Conc. [2, 32]: 9000 ng/g
aqueous humor Conc. OD [2, 32]: 4700 ng/mL
aqueous humor Conc. OS [2, 32]: 5190 ng/mL and 6810 ng/mL
aqueous humor Average Conc. [2, 33]: 1963 ng/g
aqueous humor Conc. OD [2, 33]: 2040 ng/mL and 2330 ng/mL
aqueous humor Conc. OS [2, 33]: 1510 ng/mL and 1970 ng/mL
aqueous humor Average Conc. ([2]; Group 4 (intravitreal 2.5 mg/eye, solution), 72 hr): 34.5 ng/g
Average Peak Concentration, Aqueous Humor ([2]; Group 4: intravitreal 1.55 mg/kg/dose): 80575 ng/g
aqueous humor concentrations vs free acid (FIG. 8) ([2]; intravitreal administration, up to forty-eight hours post-administration): higher aqueous humor concentrations
aqueous humor concentrations (FIG. 6) ([2]; topical ocular administration, over four hours): below 50 ng/g
SMILES: COC(=O)N[C@@H](Cc1ccccc1)C(=O)N[C@@H](Cc1ccc(NS(=O)(=O)O)cc1)c1csc(-c2cccs2)n1 [Compound 1 sodium salt]
plasma AUClast (± SE) [1, 3]: 11.8 ± 5.70 ng·h/mL and 11.8 ng·h/mL
plasma AUClast, dose normalized ([1]; Group 1: topical ocular, normalized by nominal dose 0.7 mg/kg): 16.8 ± 8.15 kg·ng·h/mL/mg and 16.8 kg·ng·h/mL/mg
plasma AUClast (± SE) [1, 8]: 1555 ± 195 ng·h/mL and 1555 ng·h/mL
plasma AUClast, dose normalized [1, 14]: 311 ± 38.9 kg·ng·h/mL/mg and 311 kg·ng·h/mL/mg
plasma AUClast, dose normalized [1, 22]: 615 ± 58.8 kg·ng·h/mL/mg and 615 kg·ng·h/mL/mg
plasma concentrations vs free acid (FIG. 5) ([1]; intravitreal administration, up to twenty-four hours post-administration): slightly higher plasma concentrations as compared to the free acid
plasma concentrations vs free acid (FIG. 4) ([1]; subcutaneous administration, up to one hour post-administration): generally increased plasma concentrations as compared to the free acid
plasma concentration (FIG. 3) ([1]; topical ocular administration, 4 hour mark): increase in Compound 1 plasma concentration
aqueous humor concentrations vs free acid (FIG. 7) ([2]; subcutaneous administration, early time points): increased aqueous humor concentrations as compared to the free acid
